“And” between values parts separate entries of the source, which are not always exact repeats. Identical values can stand only once. Like-named read-outs stand apart in the source and are kept apart here.
Assays:
[1] = test system: HCT116 (human colon carcinoma); assay: Cytotoxic activity, alamar blue assay, HCT116; type: cell-based
From the text: (§1) HCT116 (human colon carcinoma), HepG2 (human hepatocellular carcinoma), HSC-3 (human oral squamous cell carcinoma), SCC-4 (human oral squamous cell carcinoma), SCC-9 (human oral squamous cell carcinoma), HL-60 (human promyelocytic leukemia), K-562 (human chronic myelogenous leukemia), B16-F10 (murine melanoma), MRC-5 (human lung fibroblast), WT SV40 MEF (wild-type immortalized mouse embryonic fibroblast) and BAD KO SV40 MEF (BAD gene knockout immortalized mouse embryonic fibroblast) cell lines were obtained from the American Type Culture Collection (ATCC, Manassas, VA, USA) and cultured in RPMI-1640 medium (Gibco-BRL, Gaithersburg, MD, USA) with 10% fetal bovine serum (Life, Carlsbad, CA, USA), 2 mM L-glutamine (Vetec Química Fina, Duque de Caxias, RJ, Brazil) and 50 μg/mL gentamycin (Life, Carlsbad, CA, USA). Adherent cells were collected by treatment with 0.25% trypsin EDTA solution (Gibco-BRL, Gaithersburg, MD, USA). All cell lines were cultured in flasks at 37°C in 5% CO2 and sub-cultured every 3-4 days to maintain exponential growth.
(§2) Cell viability was quantified using the alamar blue assay, according to Ahmed et al.. Cells were inserted in 96-well plates for all experiments (7 x 10^4 cells/mL for adherent cells or 3 x 10^5 cells/mL for suspended cells in 100 μL of medium). […] Negative controls received the vehicle that was used for diluting the compounds tested.

[2] = test system: HSC-3 (human oral squamous cell carcinoma); assay: Cytotoxic activity, alamar blue assay, HSC-3; type: cell-based
From the text: as §1, §2

[3] = test system: HL-60 (human promyelocytic leukemia); assay: Cytotoxic activity, alamar blue assay, HL-60; type: cell-based
From the text: as §1, §2

HCT116 cells [4] = assay: Gene expression analysis by qPCR array (TaqMan Array Human Molecular Mechanisms of Cancer); type: cell-based; details: HCT116, 12 h; DOX 1 μM, PL 10 μM, 1 2.5 μM, 2 5 μM; negative control RQ = 1.0
Protocol: HCT116 cells were plated in bottles tissue culture (7x10^4 cells/mL). After 12h of incubation with the complexes, total RNA was isolated from the cells using the RNeasy Plus mini kit (Qiagen, Hilden, Germany) according to the manufacturer’s instructions. The RNA was evaluated by fluorimetry (QuBit™, Life Technologies, Camarillo, CA, EUA). RNA reverse transcription was performed using Superscript VILO™ (Invitrogen Corporation, Waltham, MA, USA). A 96-well plate TaqMan® Array Human Molecular Mechanisms of Cancer (ID 4418806, Applied Biosystems™, Foster City, CA, EUA) was used for the gene expression study by qPCR. The reactions were conducted in the ABI ViiA7 (Applied Biosystems™, Foster City, CA, EUA). The cycle conditions comprised 2 min at 50 °C, 20 s at 95 °C, then 40 cycles of 3 s at 95 °C and 30 s at 60 °C. […] The GAPDH, 18S and HPRT1 genes were used for normalization. All experiments were performed in DNase/RNase free conditions.

HCT116 cells [5] = details: trypan blue
Protocol: In all experiments, 2 mL of a HCT116 cell solution (7 x 10^4 cells/mL) was inserted in 24-well plates and incubated overnight to allow the cells to adhere to the plate surface. […] The negative control was treated with the vehicle (0.1% of a solution containing 70% sorbitol, 25% tween 80 and 5% water) used for diluting the compounds tested. […] Cell viability was assessed using trypan blue exclusion assay for all experiments.

Substance: [Ru(piplartine)(dppf)(bipy)](PF6)2 [Complex 1]
- more potent than metal-free piplartine ([1]; HCT116, IC50 72h): 4 fold
- Selectivity index (SI) ([1]; SI = IC50[MRC-5]/IC50[HCT116]): 2.0
- Selectivity index (SI) ([1]; SI = IC50[PBMC]/IC50[HCT116]): 1.1
- more potent than metal-free piplartine ([2]; HSC3, IC50 72h): 12 fold
- Selectivity index (SI) ([2]; SI = IC50[MRC-5]/IC50[HSC-3]): 5.7
- Selectivity index (SI) ([2]; SI = IC50[PBMC]/IC50[HSC-3]): 3.0
- more potent than metal-free piplartine ([3]; HL-60, IC50 72h): 4 fold
- Selectivity index (SI) ([3]; SI = IC50[MRC-5]/IC50[HL-60]): 1.0
- Selectivity index (SI) ([3]; SI = IC50[PBMC]/IC50[HL-60]): 0.5
- RQ ABL1 (HCT116 cells [4]): 1.302
- RQ AKT1 (HCT116 cells [4]): 1.469
- RQ AKT2 (HCT116 cells [4]): 1.663
- RQ APC (HCT116 cells [4]): 0.972
- RQ BAX (HCT116 cells [4]): 1.572
- RQ BCAR1 (HCT116 cells [4]): 1.687
- RQ BCL2 (HCT116 cells [4]): 2.4 and 2.367
- RQ BCL2L1 (HCT116 cells [4]): 1.936
- RQ BCL2L11 (HCT116 cells [4]): 1.710
- RQ BID (HCT116 cells [4]): 0.743
- RQ BRAF (HCT116 cells [4]): 1.072
- RQ CASP8 (HCT116 cells [4]): 1.583
- RQ CCND1 (HCT116 cells [4]): 1.2 and 1.153
- RQ CCND3 (HCT116 cells [4]): 1.447
- RQ CCNE1 (HCT116 cells [4]): 1.075
- RQ CDC42 (HCT116 cells [4]): 1.755
- RQ CDH1 (HCT116 cells [4]): 3.7 and 3.659
- RQ CDK2 (HCT116 cells [4]): 1.467
- RQ CDK4 (HCT116 cells [4]): 1.390
- RQ CDKN1A (HCT116 cells [4]): 1.331
- RQ CDKN1B (HCT116 cells [4]): 1.039
- RQ CDKN2A (HCT116 cells [4]): 2.5 and 2.469
- RQ CRK (HCT116 cells [4]): 1.184
- RQ CTNNB1 (HCT116 cells [4]): 1.131
- RQ CYCS (HCT116 cells [4]): 2.0 and 1.961
- RQ DVL1 (HCT116 cells [4]): 1.576
- RQ E2F1 (HCT116 cells [4]): 1.631
- RQ EGFR (HCT116 cells [4]): 1.3 and 1.294
- RQ ELK1 (HCT116 cells [4]): 1.275
- RQ ERBB2 (HCT116 cells [4]): 1.941
- RQ FADD (HCT116 cells [4]): 0.6 and 0.556
- RQ FAS (HCT116 cells [4]): 1.496
- RQ FGF2 (HCT116 cells [4]): 1.120
- RQ FN1 (HCT116 cells [4]): 3.8 and 3.841
- RQ FOS (HCT116 cells [4]): 11.9 and 11.943
- RQ FYN (HCT116 cells [4]): 2.5 and 2.474
- RQ FZD1 (HCT116 cells [4]): 2.3 and 2.253
- RQ GRB2 (HCT116 cells [4]): 0.961
- RQ GSK3B (HCT116 cells [4]): 1.191
- RQ GUSB (HCT116 cells [4]): 4.5
- RQ HRAS (HCT116 cells [4]): 0.777
- RQ IGF1R (HCT116 cells [4]): 2.3 and 2.283
- RQ ITGA2B (HCT116 cells [4]): 3.1 and 3.092
- RQ ITGAV (HCT116 cells [4]): 1.4 and 1.426
- RQ ITGB1 (HCT116 cells [4]): 0.838
- RQ JUN (HCT116 cells [4]): 3.7 and 3.708
- RQ KDR (HCT116 cells [4]): 4.4 and 4.404
- RQ KRAS (HCT116 cells [4]): 0.886
- RQ MAP2K1 (HCT116 cells [4]): 0.8 and 0.822
- RQ MAP3K5 (HCT116 cells [4]): 0.3 and 0.308
- RQ MAPK1 (HCT116 cells [4]): 1.305
- RQ MAPK3 (HCT116 cells [4]): 2.0 and 2.014
- RQ MAPK8 (HCT116 cells [4]): 1.411
- RQ MAPK14 (HCT116 cells [4]): 1.008
- RQ MAX (HCT116 cells [4]): 3.6 and 3.614
- RQ MDM2 (HCT116 cells [4]): 0.794
- RQ MYC (HCT116 cells [4]): 1.065
- RQ NFKB1 (HCT116 cells [4]): 1.288
- RQ NFKB2 (HCT116 cells [4]): 1.340
- RQ NFKBIA (HCT116 cells [4]): 2.0 and 2.007
- RQ NRAS (HCT116 cells [4]): 1.178
- RQ PIK3CA (HCT116 cells [4]): 0.880
- RQ PIK3R1 (HCT116 cells [4]): 2.5 and 2.456
- RQ PTEN (HCT116 cells [4]): 2.0 and 2.037
- RQ PTK2 (HCT116 cells [4]): 1.6 and 1.561
- RQ PTK2B (HCT116 cells [4]): 2.3 and 2.270
- RQ RAC1 (HCT116 cells [4]): 1.1 and 1.059
- RQ RAF1 (HCT116 cells [4]): 2.0 and 1.951
- RQ RB1 (HCT116 cells [4]): 1.003
- RQ RELA (HCT116 cells [4]): 1.390
- RQ RHOA (HCT116 cells [4]): 1.129
- RQ SHC1 (HCT116 cells [4]): 0.4 and 0.436
- RQ SMAD4 (HCT116 cells [4]): 1.4 and 1.409
- RQ SOS1 (HCT116 cells [4]): 1.2 and 1.161
- RQ SPP1 (HCT116 cells [4]): 2.5
- RQ SRC (HCT116 cells [4]): 1.584
- RQ TGFB1 (HCT116 cells [4]): 0.911
- RQ TGFBR1 (HCT116 cells [4]): 1.324
- RQ TGFBR2 (HCT116 cells [4]): 2.4 and 2.358
- RQ TP53 (HCT116 cells [4]): 3.5 and 3.478
- RQ VEGFA (HCT116 cells [4]): 1.664
- reduced the number of viable cells (HCT116 cells [5]; HCT116, 1.25 μM, 24 h): 40.2%
- reduced the number of viable cells (HCT116 cells [5]; HCT116, 1.25 μM, 48 h): 61.5%
- reduced the number of viable cells (HCT116 cells [5]; HCT116, 2.5 μM, 24 h): 65.4%
- reduced the number of viable cells (HCT116 cells [5]; HCT116, 2.5 μM, 48 h): 77.1%

From PMC5732813, “Novel piplartine-containing ruthenium complexes: synthesis, cell growth inhibition, apoptosis induction and ROS production on HCT116 cells” (Oncotarget, 2017)
